Source: patent US20170253607A1, “LONG-ACTING HIV PROTEASE INHIBITOR” (Shionogi & Co., Ltd., priority 2014, published 2017)

Columns and labels:
[1] = Evaluation of total body clearance (CLtot), intravenous administration; assay type: in vivo, Sprague-Dawley (SD); conditions: rat (SD), intravenous administration 0.5-10 mg/kg; CLtot = dose/AUC
In short: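 Plasma levels quantified by LC/MS/MS after intravenous tail-vein dosing (0.5-10 mg/kg, compound-dependent; n=2-3). AUC from pharmacokinetic analysis; total clearance calculated as dose/AUC.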

[2] = Protein binding test (equilibrium dialysis, unbound ratio fu in serum); assay type: in vitro ADME; conditions: 37° C.; for rat_fu: rat serum, equilibrium dialysis 24 hours, 2 μg/mL
Description: Assay condition: Evaluation method; Equilibrium dialysis method, Reaction time; 24 hours, Reaction temperature; 37° C., Assay concentration; 2 μg/mL A solution of the compound was added to each serum and mixed to prepare the serum samples with above concentration. The serum sample was put into one side of an equilibrium dialysis apparatus with dialysis membrane and phosphate buffered saline (PBS) was also put to another side of the apparatus. The apparatus was incubated at 37° C. for 24 hours. After incubation, the serum and PBS samples were collected and the compound concentrations in both samples were measured by LC/MS/MS. Fu was calculated by dividing the concentration in PBS by the concentration in the serum.

HIV-1 PR = HIV-1 PR (Human immunodeficiency virus type 1 group M subtype B, UniProt P04585); test: HIV-protease inhibitory activity assay (FRET peptide substrate); assay type: biochemical; conditions: Test Example 1
In short: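 HIV-1 PR (0.83 ng) preincubated with compounds 20 min at room temperature in 0.1 mol/L NaAc, 0.5 mol/L NaCl, 1 mmol/L EDTA, 1 mmol/L DTT, 0.05% Tween 20, pH 4.8. Cleavage of HiLyte Fluor 488/QXL 520 FRET peptide (2 μmol/L) read after 60 minutes at 485/535 nm; IC50 from four-parameter logistic fit.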

fraction unbound at 24 h, 2 μg/mL ([2]; serum, equilibrium dialysis, 24 hours, read-out: Serum protein binding rate (converted)) | SMILES | rat_CLt [1] [mL/min/kg] | rat_fu [2] [%] | IC50 (HIV-1 PR) [nM]
 | COc1ccc(S(=O)(=O)N(CC(C)C)CC(O)C(Cc2ccc(NCC3=C(c4sc5c(c4C(=O)O)CC(C)(C)CC5)CCOC3)cc2)NC(=O)OC2COC3(C)OCCC23)cc1 (stereo not drawn) [Compound I-362] | 4.62 | <0.1 | 3.07
 | Cc1cc(Oc2ccc(CC(NC(=O)OC3COC4(C)OCCC34)C(O)CN(CC(C)C)S(=O)(=O)c3ccc4ncsc4c3)cc2)ccc1-c1sc2c(c1C(=O)O)CC(C)(C)CC2 (stereo not drawn) [Compound I-138] | 1.6 | <0.1 | 2.66
 | COc1ccc(S(=O)(=O)N(CC(C)C)CC(O)C(Cc2ccc(OC3CCC(c4ccc(C(F)(F)F)cc4-c4sc5c(c4C(=O)O)CC(C)(C)CC5)C3)cc2)NC(=O)OC2COC3(C)OCCC23)cc1 (stereo not drawn) [Compound I-343] | 3.31 | <0.1 | 15.9
 | COc1ccc(S(=O)(=O)N(CC(C)C)CC(O)C(Cc2ccc(OC3CCCN(c4ccccc4-c4sc5c(c4C(=O)O)CC(C)(C)CC5)C3)cc2)NC(=O)OC2COC3(C)OCCC23)cc1 (stereo not drawn) [Compound I-102] | 4.24 | <0.1 | 3.83
0.903 | CC(C)CN(C[C@@H](O)[C@H](Cc1ccccc1)NC(=O)O[C@H]1CO[C@H]2OCC[C@H]21)S(=O)(=O)c1ccc(N)cc1 [Darunavir, (3R,3aS,6aR)-hexahydrofuro[2,3-b]furan-3-yl[(1S,2R)-3-{[(4-aminophenyl)sulfonyl] (2-methylpropyl)amino}-1-benzyl-2-hydroxypropyl]carbamate, reference compound] |  |  | 
 | COc1ccc(S(=O)(=O)N(CC(C)C)CC(O)C(Cc2ccc(NCc3cc(OC)ccc3-c3sc4c(c3C(=O)O)CC(C)(C)CC4)cc2)NC(=O)OC2COC3(C)OCCC23)cc1 (stereo not drawn) [Compound I-566] | 0.727 |  | 1.61
 | COc1ccc(S(=O)(=O)N(CC(C)C)CC(O)C(Cc2ccc(NCc3ccc(C)c(-c4sc5c(c4C(=O)O)CC(C)(C)CC5)c3)cc2)NC(=O)OC2COC3(C)OCCC23)cc1 (stereo not drawn) [Compound I-532] | 0.551 |  | 4.14
 | COc1ccc(S(=O)(=O)N(CC(C)C)CC(O)C(Cc2ccc(NCC3=C(C(=O)Nc4sc5c(c4C(=O)O)CC(C)(C)CC5)CCC3)cc2)NC(=O)OC2COC3(C)OCCC23)cc1 (stereo not drawn) [Compound I-589] | 0.311 |  | 3.48
 | COc1ccc(S(=O)(=O)N(CC(C)C)CC(O)C(Cc2ccc(N(C)Cc3ccc(C(F)(F)F)cc3-c3sc4c(c3C(=O)O)CC(C)(C)CC4)cc2)NC(=O)OC2COC3(C)OCCC23)cc1 (stereo not drawn) [Compound I-540] | 1.5 |  | 27.8
 | COc1ccc(S(=O)(=O)N(CC(C)C)CC(O)C(Cc2ccc(NCc3cc(N4CCCCC4)ccc3-c3sc4c(c3C(=O)O)CC(C)(C)CC4)cc2)NC(=O)OC2COC3(C)OCCC23)cc1 (stereo not drawn) [Compound I-689] | 0.385 |  | 2.01
 | COc1ccc(S(=O)(=O)N(CC(C)C)CC(O)C(Cc2ccc(NCc3cc(N(C)C)ccc3-c3sc4c(c3C(=O)O)CC(C)(C)CC4)cc2)NC(=O)OC2COC3(C)OCCC23)cc1 (stereo not drawn) [Compound I-455] | 0.236 |  | 2.38
 | COc1ccc(S(=O)(=O)N(CC(C)C)CC(O)C(Cc2ccc(NC(C)c3ccccc3-c3sc4c(c3C(=O)O)CC(C)(C)CC4)cc2)NC(=O)OC2COC3(C)OCCC23)cc1 (stereo not drawn) [Compound I-603] | 5.83 |  | 3.65
 | COc1ccc(S(=O)(=O)N(CC(C)C)CC(O)C(Cc2ccc(NCc3cc4c(cc3-c3sc5c(c3C(=O)O)CC(C)(C)CC5)OCO4)cc2)NC(=O)OC2COC3(C)OCCC23)cc1 (stereo not drawn) [Compound I-552] | 0.985 |  | 1.41
 | COc1ccc(S(=O)(=O)N(CC(C)C)CC(O)C(Cc2ccc(N(C)Cc3ccc(-c4sc5c(c4C(=O)O)CC(C)(C)CC5)cc3)cc2)NC(=O)OC2COC3(C)OCCC23)cc1 (stereo not drawn) [Compound I-450] | 3.7 |  | 2.68
 | COc1ccc(S(=O)(=O)N(CC(C)C)CC(O)C(Cc2ccc(N(C)CCOc3ccc(-c4sc5c(c4C(=O)O)CC(C)(C)CC5)c(C)c3)cc2)NC(=O)OC2COC3(C)OCCC23)cc1 (stereo not drawn) [Compound I-519] | 0.429 |  | 8.93
 | COc1ccc(S(=O)(=O)N(CC(O)C(Cc2ccc(NCc3ccccc3-c3sc4c(c3C(=O)O)CC(C)(C)CC4)cc2)NC(=O)OC2COC3(C)OCCC23)CC(C)(C)C)cc1 (stereo not drawn) [Compound I-473] | 1.22 |  | 2.71
 | COc1ccc(S(=O)(=O)N(CC(C)C)CC(O)C(Cc2ccc(N(C)Cc3cccc(-c4sc5c(c4C(=O)O)CC(C)(C)CC5)c3C)cc2)NC(=O)OC2COC3(C)OCCC23)cc1 (stereo not drawn) [Compound I-510] | 1.08 |  | 10.6

fraction unbound at 24 h, 2 μg/mL ([2]; serum, equilibrium dialysis, 24 hours, read-out: Serum protein binding rate (converted)) | SMILES | rat_CLt [1] [mL/min/kg] | rat_fu [2] [%] | IC50 (HIV-1 PR) [nM]
 | COc1ccc(S(=O)(=O)N(CC(C)C)CC(O)C(Cc2ccc(N(C)CC3=C(c4sc5c(c4C(=O)O)CC(C)(C)CC5)CCCCC3)cc2)NC(=O)OC2COC3(C)OCCC23)cc1 (stereo not drawn) [Compound I-525] | 0.127 |  | 5.75
 | COc1ccc(S(=O)(=O)N(CC(C)C)CC(O)C(Cc2ccc(NCc3ccc(F)c(-c4sc5c(c4C(=O)O)CC(C)(C)CC5)c3)cc2)NC(=O)OC2COC3(C)OCCC23)cc1 (stereo not drawn) [Compound I-287] | 2.73 |  | 2.02
 | COc1ccc(S(=O)(=O)N(CC(C)C)CC(O)C(Cc2ccc(NCC3=C(c4sc5c(c4C(=O)O)CC(C)(C)CC5)CC(C)(C)C3)cc2)NC(=O)OC2COC3(C)OCCC23)cc1 (stereo not drawn) [Compound I-662] | 1.11 |  | 2.51
 | COc1ccc(S(=O)(=O)N(CC(C)C)CC(O)C(Cc2ccc(N(C)Cc3ccccc3-n3nc4c(c3C(=O)O)CC3(CCCC3)CC4)cc2)NC(=O)OC2COC3(C)OCCC23)cc1 (stereo not drawn) [Compound I-466] | 1.75 |  | 4.28
 | COc1ccc(S(=O)(=O)N(CC(C)C)CC(O)C(Cc2ccc(NCc3cc4ccccc4c(-c4sc5c(c4C(=O)O)CC(C)(C)CC5)n3)cc2)NC(=O)OC2COC3(C)OCCC23)cc1 (stereo not drawn) [Compound I-453] | 0.593 |  | 2.63
 | COc1ccc(S(=O)(=O)N(CC(C)C)CC(O)C(Cc2ccc(OCc3ccccc3-c3nc4n(c3C(=O)O)CCCC4)cc2)NC(=O)OC2COC3(C)OCCC23)cc1 (stereo not drawn) [Compound I-125] | 3.89 |  | 1.58
 | COc1ccc(S(=O)(=O)N(CC(C)C)CC(O)C(Cc2ccc(NCc3cc(N4CCC4)ccc3-c3sc4c(c3C(=O)O)CC(C)(C)CC4)cc2)NC(=O)OC2COC3(C)OCCC23)cc1 (stereo not drawn) [Compound I-693] | 0.247 |  | 3.3
 | COc1ccc(S(=O)(=O)N(CC(C)C)CC(O)C(Cc2ccc(N3CCC(Oc4cc5ccccc5cc4-c4sc5c(c4C(=O)O)CC(C)(C)CC5)C3)cc2)NC(=O)OC2COC3(C)OCCC23)cc1 (stereo not drawn) [Compound I-509] | 0.377 |  | 1.96
 | COc1ccc(S(=O)(=O)N(CC(C)C)CC(O)C(Cc2ccc(NCc3ccc(N4CCCC4=O)cc3-c3sc4c(c3C(=O)O)CC(C)(C)CC4)cc2)NC(=O)OC2COC3(C)OCCC23)cc1 (stereo not drawn) [Compound I-742] | 5.03 |  | 2.08
 | COc1ccc(S(=O)(=O)N(CC(C)C)CC(O)C(Cc2ccc(NCc3ccc(-c4sc5c(c4C(=O)O)CC(C)(C)CC5)cc3O)cc2)NC(=O)OC2COC3(C)OCCC23)cc1 (stereo not drawn) [Compound I-555] | 5.98 |  | 1.68
 | COc1ccc(S(=O)(=O)N(CC(C)C)CC(O)C(Cc2ccc(N(C)Cc3cc(N(C)C)ccc3-c3sc4c(c3C(=O)O)CC(C)(C)CC4)cc2)NC(=O)OC2COC3(C)OCCC23)cc1 (stereo not drawn) [Compound I-538] | 0.598 |  | 2.86
 | COc1ccc(S(=O)(=O)N(CC2CCC2)CC(O)C(Cc2ccc(NCc3cc(C(F)(F)F)ccc3-c3sc4c(c3C(=O)O)CC(C)(C)CC4)cc2)NC(=O)OC2COC3OCCC23)cc1 (stereo not drawn) [Compound I-869] | 1.15 |  | 6.45
 | COc1ccc(S(=O)(=O)N(CC2CCC2)CC(O)C(Cc2ccc(NCc3ccccc3C(=O)Nc3sc4c(c3C(=O)O)CC(C)(C)CC4)cc2)NC(=O)OC2COC3OCCC23)cc1 (stereo not drawn) [Compound I-860] | 0.0981 |  | 3.56
 | COc1ccc(S(=O)(=O)N(CC(C)C)CC(O)C(Cc2ccc(NCc3ccccc3NC(=O)c3sc4c(c3C(=O)O)CC(C)(C)CC4)cc2)NC(=O)OC2COC3(C)OCCC23)cc1 (stereo not drawn) [Compound I-574] | 1.01 |  | 2.93
 | CC1(C)CCc2sc(NC(=O)c3ccccc3CNc3ccc(CC(NC(=O)OC4COC5OCCC45)C(O)CN(CC4CCCC4)S(=O)(=O)c4ccc5c(c4)OCO5)cc3)c(C(=O)O)c2C1 (stereo not drawn) [Compound I-858] | 0.142 |  | 4.23
 | COc1ccc(S(=O)(=O)N(CC(C)C)CC(O)C(Cc2ccc(NCc3cc4ccsc4nc3-c3sc4c(c3C(=O)O)CC(C)(C)CC4)cc2)NC(=O)OC2COC3(C)OCCC23)cc1 (stereo not drawn) [Compound I-649] | 0.622 |  | 2.25
